Legend:
Hela cells = assay: CCK‐8 cell viability assay, Hela; type: cell-based, human; conditions: CCK‐8, 48 h, triplicate; peptides 5–45 μg·mL^−1; 5‐FU positive control 0.1–5 mM; vs negative control
Source text: (§1) Human breast cancer MCF‐7 (RRID:CVCL_0031), human lung cancer A549 (RRID:CVCL_0023), human colon cancer HCT‐116 (RRID:CVCL_0291), human cervical cancer Hela (RRID:CVCL_0030), human hepatoma HepG2 (RRID:CVCL_0027), human gastric cancer SGC‐7901 (RRID:CVCL_0520) and human non‐tumor mamma gland epithelial MCF‐10A (RRID:CVCL_0598) and transformed human liver epithelial‐2 (THLE‐2) (RRID:CVCL_3803) cells were obtained from Shanghai Donghuan Biotechnology (Shanghai, China). All cell lines had been authenticated in the past 3 years and again within 4 months after completion of the experiments. All cell lines had been tested for mycoplasma contamination frequently. Their identities were characterized by short tandem repeat analysis. All of these cell lines were cultured in high glucose Dulbecco's modified Eagle's medium supplemented by 10% fetal bovine serum, 100 units·mL^−1 penicillin and 100 μg·mL^−1 streptomycin (complete culture medium).
(§2) MCF‐7 cells (1 × 10^4 cells per well) were treated in triplicate with different doses of each type of RC extract in 96‐well plates for varying time periods. The negative control cells were treated with the diluent of physiological saline, whereas positive control cells were treated with different concentrations (0.1–5 mM) of 5‐fluorouracil (5‐FU) (Leica, Wetzlar, Germany). During the last hour of culture, each well of cells was treated with 10 μL of CCK‐8 solution. The absorbance of the supernatants of individual wells was measured at 450 nm using a microplate reader. Similarly, the effect of different synthesized RCPs (5–45 μg·mL^−1) on the viability of different types of human cancer cells was tested with CCK‐8 assays using the diluent of physiological saline containing the same concentration of dimethylsulfoxide as a negative control and the same concentrations of 5‐FU as the positive controls. Ten RCPs with a predicted strong bioactivity were synthesized by GenScript ([…]) and their purity, sequences and solubility are shown in Table 1. […] The formula used to calculate the cytotoxicity rate of each concentration of RCP was: Cytotoxicity rate (%) = (absorbance value of the control group − absorbance value of the experimental group)/absorbance value of the control group × 100%. In addition, MCF‐7 cells were treated with each type of RCP at 45 μg·mL^−1 for 12–72 h and the dynamic impact of RCP treatment on the viability of MCF‐7 cells was determined every 12 h using CCK‐8 assays.
(§3) Data are expressed as the mean ± SEM. The data distribution was analyzed by Shapiro–Wilk test. The IC50 values of each peptide for individual cell lines were determined using the PRISM, version 8 (GraphPad Software Inc.). Briefly, all dose–response data were converted into […], which were automatically analyzed by PRISM for non‐linear regression to determine and report the IC50 and its SD for each peptide in a specific cell line. The difference among groups was analyzed by analysis of variance and post‐hoc Tukey's tests and the comparison between groups was performed using Student's t‐test and PRISM, version 8 (GraphPad Software Inc.). P < 0.05 was considered statistically significant.

HCT‐116 cells = assay: CCK‐8 cell viability assay, HCT‐116; type: cell-based, human; conditions: CCK‐8, 48 h, triplicate; peptides 5–45 μg·mL^−1; 5‐FU positive control 0.1–5 mM; vs negative control
Source text: as §1, §2, §3

HepG2 cells = assay: CCK‐8 cell viability assay, HepG2; type: cell-based, human; conditions: CCK‐8, 48 h, triplicate; peptides 5–45 μg·mL^−1; 5‐FU positive control 0.1–5 mM; vs negative control
Source text: as §1, §2, §3

A549 cells = assay: CCK‐8 cell viability assay, A549; type: cell-based, human; conditions: CCK‐8, 48 h, triplicate; peptides 5–45 μg·mL^−1; 5‐FU positive control 0.1–5 mM; vs negative control
Source text: as §1, §2, §3

SGC‐7901 cells = assay: CCK‐8 cell viability assay, SGC‐7901; type: cell-based, human; conditions: CCK‐8, 48 h, triplicate; peptides 5–45 μg·mL^−1; 5‐FU positive control 0.1–5 mM; vs negative control
Source text: as §1, §2, §3

MCF‐7 cells = assay: CCK‐8 cell viability assay, MCF‐7; type: cell-based, human; conditions: for dynamic cytotoxicity against MCF‐7 cells: 45 μg·mL^−1, 12–72 h, CCK‐8 every 12 h, maintained at highest levels to 72 h
Source text: as §1, §2, §3

THLE‐2 cells = assay: CCK‐8 cell viability assay, non‐tumor THLE‐2; type: cell-based, human; conditions: CCK‐8, 48 h, triplicate; peptides 5–45 μg·mL^−1; 5‐FU positive control 0.1–5 mM; vs negative control
Source text: as §1, §2, §3

MCF‐10A cells = assay: CCK‐8 cell viability assay, non‐tumor MCF‐10A; type: cell-based, human; conditions: CCK‐8, 48 h, triplicate; peptides 5–45 μg·mL^−1; 5‐FU positive control 0.1–5 mM; vs negative control
Source text: as §1, §2, §3

[1] = test system: cancer cells (MCF‐7, A549, HCT‐116, Hela, HepG2, SGC‐7901) vs non‐tumor MCF‐10A and THLE‐2 cells; assay: CCK‐8 cytotoxicity, preference for cancer cells over non‐tumor cells; type: cell-based, human; set-up: cytotoxicity against non‐tumor MCF‐10A and THLE‐2 cells compared with tumor cell lines: dose or concentration left out as unconfirmed; conditions: for preference of cytotoxicity for cancer cells over non‐tumor cells: 5–45 μg·mL^−1, 48 h, CCK‐8; for cytotoxicity against non‐tumor MCF‐10A and THLE‐2 cells compared with tumor cell lines: 48 h, P < 0.05 or P < 0.01
Source text: as §1, §2, §3

[2] = Solubility of the synthesized peptides; type: physicochemical; conditions: for aqueous solubility: in words; for Solubility: solvent given for the synthesized peptide (GenScript)
[3] = CCK‐8, 48 h, triplicate, peptides 5–45 μg·mL^−1, 5‐FU positive control 0.1–5 mM, vs negative control

Molecule	viability of Hela cells (Hela cells)	viability of HCT‐116 cells (HCT‐116 cells)	viability of HepG2 cells (HepG2 cells)	viability of A549 cells (A549 cells)	viability of SGC‐7901 cells (SGC‐7901 cells)	viability of MCF‐7 cells (MCF‐7 cells; [3])	viability of MCF‐7 cells (MCF‐7 cells; RC extract experiment, positive control 0.1–5 mM, dose‐dependent, P < 0.01)	viability of non‐tumor THLE‐2 cells (THLE‐2 cells)	viability of non‐tumor MCF‐10A cells (MCF‐10A cells)	preference of cytotoxicity for cancer cells over non‐tumor cells [1]	cytotoxicity against non‐tumor MCF‐10A and THLE‐2 cells compared with tumor cell lines [1]	dynamic cytotoxicity against MCF‐7 cells (MCF‐7 cells)	aqueous solubility [2]	Solubility [2]
O=c1[nH]cc(F)c(=O)[nH]1 [5‐FU, 5‐fluorouracil, reference compound]	significantly decreased the viability	significantly decreased the viability	significantly decreased the viability	significantly decreased the viability	significantly decreased the viability	significantly decreased the viability	significantly reduced the viability	significantly decreased the viability	significantly decreased the viability					
EWLKVPCLSTRLINPENMGF [RCP‐6, synthesized 20‐mer renal cell peptide from Sacsin molecular chaperone, trypsin digested]	significantly decreased the viability	significantly decreased the viability	significantly decreased the viability	significantly decreased the viability	significantly decreased the viability	significantly decreased the viability		only treatment with the highest doses of them slightly reduced the viability	only treatment with the highest doses of them slightly reduced the viability	potent cytotoxicity preferably against cancer cells	statistically lower than tumor cell lines	increased with time from 12 h post treatment to 48 h	low aqueous solubility	0.1% Dimethylsulfoxide
FAGDDAPR [RCP‐4, synthesized 8‐mer renal cell peptide from Actin, cytoplasmic 2, trypsin digested]	decreased the viability	decreased the viability	decreased the viability	decreased the viability	decreased the viability	decreased the viability		decreased the viability	decreased the viability	did not preferably decrease the viability of tumor cells				Water, pH 7.0
GIYAPDSPRAF [RCP‐8, synthesized 11‐mer renal cell peptide from Vanin 1, protamex‐digested]	decreased the viability	decreased the viability	decreased the viability	decreased the viability	decreased the viability	decreased the viability		decreased the viability	decreased the viability	did not preferably decrease the viability of tumor cells				0.1% Dimethylsulfoxide
GPAGPQGPR [RCP‐3, synthesized 9‐mer renal cell peptide from Collagen alpha‐1 (I) chain, trypsin digested]	decreased the viability	decreased the viability	decreased the viability	decreased the viability	decreased the viability	decreased the viability		decreased the viability	decreased the viability	did not preferably decrease the viability of tumor cells				Water, pH 7.0
IYAPDSPRAF [RCP‐10, synthesized 10‐mer renal cell peptide from Vanin 1, protamex‐digested]	decreased the viability	decreased the viability	decreased the viability	decreased the viability	decreased the viability	decreased the viability		decreased the viability	decreased the viability	did not preferably decrease the viability of tumor cells				Water, pH 7.0
PAPPKPEPK [RCP‐9, synthesized 9‐mer renal cell peptide from Non‐histone chromosomal protein HMG‐17, trypsin digested]	decreased the viability	decreased the viability	decreased the viability	decreased the viability	decreased the viability	decreased the viability		decreased the viability	decreased the viability	did not preferably decrease the viability of tumor cells				Water, pH 7.0
QQHMKFGKKCWRKVWALLYA [RCP‐1, synthesized 20‐mer renal cell peptide from Docking protein 3, trypsin digested]	significantly decreased the viability	significantly decreased the viability	significantly decreased the viability	significantly decreased the viability	significantly decreased the viability	significantly decreased the viability		only treatment with the highest doses of them slightly reduced the viability	only treatment with the highest doses of them slightly reduced the viability	potent cytotoxicity preferably against cancer cells	statistically lower than tumor cell lines	increased with time from 12 h post treatment to 48 h	low aqueous solubility	0.1% Dimethylsulfoxide

— publication PMC12582985, “Preparation and characterization of renal cell peptides from fetal rats for their antitumor activity” (FEBS Open Bio, 2025)
